From the supplement of paper PMC10307832

The cell lines below were run with Cc1cnc(Nc2ccc(OCCN3CCCC3)cc2)nc1Nc1cccc(S(=O)(=O)NC(C)(C)C)c1 [Fedratinib] (assay: relative viability (nuclei count vs DMSO), 5 days (fraction); higher = more cells survive). Conditions: 0.1 µM.
How it was run: (§1)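 Nuclei counted with MetaXpress define viability as the ratio of treated to vehicle wells, given as a median across plates. The lung cancer cell lines were in 1536-well plates, pinned with five √10-spaced library-drug doses and imaged at 4× after 5 days and Hoechst staining. Plates passed with control CV below 25% and at least one doubling.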

Cell Line | relative viability
COR-L 105 | 0.827
LOU-NH91 | 0.893
NCI-H2405 | 0.937
HOP-62 | 1.01
HCC-44 | 0.963
LU99A | 0.969
BEN | 0.842
HARA | 0.863
HCC-78 | 0.87
NCI-H322M | 0.873
LCLC-97TM1 | 1.05
NCI-H2009 | 0.956
A-427 | 0.928
NCI-H661 | 0.876
NCI-H1734 | 1
NCI-H460 | 0.997
NCI-H2347 | 1.04
SK-LU-1 | 1.06
NCI-H1395 | 0.784
201T | 0.963
NCI-H1915 | 1.03
HCC-827 | 1.07
LXF-289 | 0.978
NCI-H23 | 1.01
NCI-H647 | 0.867
CAL-12T | 0.93
NCI-H1651 | 0.958

Same assay, conditions: 0.3162 µM

Cell Line | relative viability
COR-L 105 | 1.1
LOU-NH91 | 1.08
NCI-H2405 | 0.939
HOP-62 | 0.907
HCC-44 | 0.982
LU99A | 0.934
BEN | 0.91
HARA | 0.903
HCC-78 | 0.869
NCI-H322M | 1
LCLC-97TM1 | 1.02
NCI-H2009 | 1.08
A-427 | 1.02
NCI-H661 | 1.06
NCI-H1734 | 0.97
NCI-H460 | 0.974
NCI-H2347 | 0.932
SK-LU-1 | 0.906
NCI-H1395 | 0.955
201T | 1
NCI-H1915 | 0.97
HCC-827 | 1.01
LXF-289 | 0.997
NCI-H23 | 0.908
NCI-H647 | 0.952
CAL-12T | 0.996
NCI-H1651 | 0.984

Same assay, conditions: 1 µM

Cell Line | relative viability
COR-L 105 | 0.664
LOU-NH91 | 0.723
NCI-H2405 | 0.834
HOP-62 | 0.987
HCC-44 | 0.882
LU99A | 0.924
BEN | 0.831
HARA | 0.803
HCC-78 | 0.96
NCI-H322M | 0.678
LCLC-97TM1 | 0.778
NCI-H2009 | 0.987
A-427 | 0.555
NCI-H661 | 0.914
NCI-H1734 | 0.853
NCI-H460 | 0.979
NCI-H2347 | 0.938
SK-LU-1 | 0.868
NCI-H1395 | 0.7
201T | 0.918
NCI-H1915 | 0.658
HCC-827 | 1.03
LXF-289 | 0.974
NCI-H23 | 0.597
NCI-H647 | 0.777
CAL-12T | 0.859
NCI-H1651 | 0.945

Each cell line was assayed with COC1=CC=C(C=C1)COC2=C(C=C(C=C2)CC3=CN=C(N=C3N)N)OC [GW-2580] in the same assay as above. Conditions: 0.08 µM.
How it was run: as §1

Cell Line | relative viability
COR-L 105 | 1.01
LOU-NH91 | 0.987
NCI-H2405 | 0.99
HOP-62 | 1.06
HCC-44 | 0.981
LU99A | 0.991
BEN | 0.949
HARA | 1.11
HCC-78 | 0.95
NCI-H322M | 0.941
LCLC-97TM1 | 0.972
NCI-H2009 | 1.06
A-427 | 1.05
NCI-H661 | 1.03
NCI-H1734 | 0.987
NCI-H460 | 1.07
NCI-H2347 | 0.989
SK-LU-1 | 1.09
NCI-H1395 | 0.866
201T | 0.974
NCI-H1915 | 1.04
HCC-827 | 1.06
LXF-289 | 1.03
NCI-H23 | 1.03
NCI-H647 | 1.12
CAL-12T | 0.995
NCI-H1651 | 1.06

Same assay, conditions: 0.8 µM

Cell Line | relative viability
COR-L 105 | 1.05
LOU-NH91 | 1.05
NCI-H2405 | 1.13
HOP-62 | 1.12
HCC-44 | 1.03
LU99A | 0.875
BEN | 1.08
HARA | 1.16
HCC-78 | 1.21
NCI-H322M | 1.1
LCLC-97TM1 | 1.07
NCI-H2009 | 0.996
A-427 | 1.11
NCI-H661 | 1.04
NCI-H1734 | 0.986
NCI-H460 | 1.05
NCI-H2347 | 1.1
SK-LU-1 | 1.12
NCI-H1395 | 0.979
201T | 1.13
NCI-H1915 | 1.02
HCC-827 | 1.05
LXF-289 | 1.08
NCI-H23 | 1.11
NCI-H647 | 1.14
